Measured values published in BindingDB's records for doi:10.7270/Q24M9315 (The Scripps Research Institute Molecular Screening Center, 2011).

Target: T1, Caspase-3 (Homo sapiens, UniProt P42574)
T1 sequence (P42574 whole entry): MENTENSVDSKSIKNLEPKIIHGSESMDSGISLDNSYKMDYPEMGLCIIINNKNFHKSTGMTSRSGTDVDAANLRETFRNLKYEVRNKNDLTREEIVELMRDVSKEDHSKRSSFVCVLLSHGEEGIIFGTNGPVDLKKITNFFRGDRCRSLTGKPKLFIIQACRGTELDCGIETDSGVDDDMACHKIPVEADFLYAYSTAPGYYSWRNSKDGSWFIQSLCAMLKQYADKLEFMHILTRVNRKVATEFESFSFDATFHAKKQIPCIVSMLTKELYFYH
Test: activators of human procaspase-3 D3A mutant – biochemical, absorbance, PC-3 D3A mutant, counter-screen for dual procaspase-3/7 activator project, dose response (AID 504328)

SMILES	EC50 [µM]
COc1ccccc1-n1c(O)c2n(-c3ccccc3)[nH]c(C(=O)c3ccccc3)c-2c1=O	> 85.3
COC(=O)c1[nH]n(-c2ccc(Cl)cc2)c2c(O)n(-c3ccccc3OC)c(=O)c1-2 [1-(4-Chloro-phenyl)-5-(2-methoxy-phenyl)-4,6-dioxo-1,3a,4,5,6,6a-hexahydro-pyrrolo[3,4-c]pyrazole-3-carboxylic acid methyl ester]	> 85.3
O=C(c1ccccc1)c1[nH]n(-c2ccccc2)c2c(O)n(-c3ccccc3)c(=O)c1-2 [3-benzoyl-1,5-diphenyl-3a,6a-dihydropyrrolo[3,4-c]pyrazole-4,6-dione]	> 85.3
CCOC(=O)C(C#N)C=Nc1cc(OC)ccc1OC (configuration not stated) [(E)-2-Cyano-3-(2,5-dimethoxy-phenylamino)-acrylic acid ethyl ester]	> 85.3
C=CC=Nc1c(Cl)c(O)n(-c2cccc(Cl)c2Cl)c1O [MLS000533809]	> 85.3
Cc1[nH]nc2c1C(c1c[nH]c3ccccc13)C(C#N)C(=N)O2 (configuration not stated) [MLS001030009]	23.1
CCOc1ccc(NC=C2C(=O)CC(c3ccco3)CC2=O)cc1 (configuration not stated) [SMR000268302]	> 85.3
